Entries after “also recorded” stand apart in the source; their conditions may differ.
Key:
[1] = test system: HepG2 cells; assay: Glucose production assay in HepG2 cells; format: cell-based, human; details: for reduction in glucose production compared with 100 nM insulin / CDE / reduction in glucose production: 48 hr; for reduction in glucose production: serum-free
Procedure: Equal numbers of Human HepG2 or rat H4IIE cells (1-1.5×10^5 cells/well) were seeded on 96 well plates in 10% FBS-containing media for 24 hr. Cells were then washed twice with PBS, and treated with various concentrations of compounds, metformin or insulin in 100 μl of glucose production media (glucose-free, phenol red-free DMEM media supplemented with 20 mM sodium lactate, 2 mM sodium pyruvate and 5 mM HEPES) at 37° C. for 24 hr (H4IIE cells only) or 48 hr (HepG2 cell only). Cells were also incubated with 0.24% DMSO (the maximal volume of DMSO solvent used in the experiments).
After the above treatments, 50 μl of culture media were collected, and subjected to glucose analysis using Molecular Probes Amplex Red glucose assay kit (Cat #A22189) according to the manufacturer's protocol. Cell numbers or viability in the culture plate after the above compound treatments were determined using Promega's CellTiter96® AQueous One Solution Cell Proliferation Assay kits, according to the manufacturer's protocol and instructions. In brief, after removing 50 μl of culture media for glucose assay, cells were incubated with AQueous One solution (25 μl stock solution and 50 μl prewarmed PBS/per well) at 37° C. for 1 hour, and the absorbance of OD490 nm in each sample was determined by the Bio-Tek microplate reader. Cell viability in culture wells were determined by the subtraction of OD490 nm in cultured cells with the OD490 nm in plain culture media (without seeding of cells). Glucose production in the culture cells were obtained by normalizing the glucose concentration in culture media by cell viability in each well. At least 3 samples per each treatment were examined for the above analysis. Data are presented as Mean±SEM of those samples. Experiments were repeated at least twice.
The half maximal inhibitory concentration (IC50 values) of Compound #43 or metformin for the inhibition of glucose production were determined using the ED50 Plus v1.0 online software.

[2] = test system: G6pc; assay: QRT-PCR of basal G6pc expression in AML-12 cells; format: cell-based, mouse
Procedure: (§1) For RNA analysis of basal G6pc expression (without the presence of diabetic stimuli: 8-CPT/Dex), amplified AML-12 and HepG2 cells were cultured on 24-well plates (0.5-2×10^5 cells/well) overnight in 10% FBS ITS- and Dex-free DMEM/F12 media and 10% FBS EMEM media, respectively. These cells were rinsed twice with PBS to remove residual sera. Then, the PBS-washed HepG2 cells were treated without or with insulin or Compound #43 in serum-free EMEM media for 40 hr. In some experiments, the PBS-washed AML-12 cells were incubated without or with Compound #43 or other selenium compounds in serum-free DMEM/F12 media for 24 hours. In other experiments, amplified AML-12 cells were pretreated without or with Compound #43 (150 or 300 ppb) in 10% FBS but ITS/Dex-free DMEM/F12 media for 24 hr. After 24 hr treatment, AML-12 cells were washed twice with PBS (to remove any residual serum in the culture) and then treated with insulin, Compound #43 or both, in the serum-free DMEM/Dex media for 6 hr.
Total RNA from saline- or selenium compound-treated Lepr^db/db mice was isolated using a Qiagen RNAeasy RNA isolation kit according to the Manufacturer's protocol. Total RNA from cultured cells was isolated using Trizol (Invitrogen) according to the manufacturer's protocol, and then incubated with DNase I to remove any potential contaminating genomic DNA. RNA samples were subjected to real-time PCR (QRT-PCR) analysis using Applied-Bioscience's RT kit and predesigned Taqman probes (Invitrogen), as described previously (Lan et al EMBO J 2003). Data were normalized by Actin B (Actb) mRNA levels in each sample, and are presented as mean±SEM of 3-5 samples.

[3] = target: T1, native insulin receptor (Insr) (Rattus norvegicus, UniProt P15127); assay: In vitro cell-free phosphorylation of native insulin receptor; format: biochemical
T1 construct: native insulin receptor proteins, containing both alpha and beta subunits; purchased Sigma I9266; host or cells: purified from rat liver tissue
Procedure: In vitro phosphorylation of Insr was performed according to Sigma's protocol with the following modifications. In brief, 10 μl of native insulin receptor solution containing 0.8 μl of original native INSR stock solution (Sigma, Catalog #I9266; diluted in enzyme dilution buffer containing 50 mM HEPES, pH 7.6, 150 mM NaCl and 0.1% Triton X-100) were incubated with equal volume of solutions containing insulin (Sigma), DMSO (Compound #43 solvent), Compound #43 or Compound #68 (diluted in 50 mM HEPES, pH 7.6 and 100 μg/ml bovine serum albumin) on ice for 30 min. Then 20 μl of 2× kinase buffer containing 0.2 mM ATP, 50 mM HEPES, pH 7.6, 50 mM MgCl2 and 4 mM MnCl2 were added to the above reactions, mixed and incubated on ice for 45 minutes.
Five microliters of the above reactions were immediately subjected to Western blot analysis using specific antibodies against phosphorylated tyrosine residues at 1146, 1150 and 1151 of Insrβ proteins (Cell Signaling Inc.). Protein band density was determined using the NIH Image J software.

[4] = test system: AML-12 cells; assay: Glucose uptake assay in AML-12 cells; format: cell-based, mouse
Procedure: Equal numbers of amplified AML-12 cells were seeded on 96 well plates (1.5×10^5/well) and cultured in 10% FBS but ITS/Dex-free DMEM/F12 media overnight. Then these cells were washed twice with PBS (to remove any potential residual sera), and serum-starved in plain DMEM/F12 media overnight. These serum-starved AML-12 cells were treated without (basal), with insulin (10 and 100 nM) or Compound #43 (150, 300 and 600 ppb) in glucose/phenol red-free DMEM media at 37° C. for 1.5 hr. After treatment, media was removed and cells were washed once with PBS and incubated with 1 mM 2-deoxyglucose (2DG) at room temperature for 30 min. The 2DG-treated cells were then subjected to glucose uptake measurement using Promega's Glucose Uptake-Glo Assay kit, according to the manufacturer's protocol. Luminescent signals were recorded using a Bio-Tek luminometer.

[5] = test system: G6PC; assay: QRT-PCR of G6PC expression in HepG2 cells; format: cell-based, human; details: 100 nM insulin or 600 ppb Compound #43, serum-free, 40 hr (FIG. 10B)
Procedure: as §1
Total RNA from saline- or selenium compound-treated Lepr^db/db mice was isolated using a Qiagen RNAeasy RNA isolation kit according to the Manufacturer's protocol. Total RNA from cultured cells was isolated using Trizol (Invitrogen) according to the manufacturer's protocol, and then incubated with DNase I to remove any potential contaminating genomic DNA. […]

T1 sequence (P15127 764-1383 limits assumed): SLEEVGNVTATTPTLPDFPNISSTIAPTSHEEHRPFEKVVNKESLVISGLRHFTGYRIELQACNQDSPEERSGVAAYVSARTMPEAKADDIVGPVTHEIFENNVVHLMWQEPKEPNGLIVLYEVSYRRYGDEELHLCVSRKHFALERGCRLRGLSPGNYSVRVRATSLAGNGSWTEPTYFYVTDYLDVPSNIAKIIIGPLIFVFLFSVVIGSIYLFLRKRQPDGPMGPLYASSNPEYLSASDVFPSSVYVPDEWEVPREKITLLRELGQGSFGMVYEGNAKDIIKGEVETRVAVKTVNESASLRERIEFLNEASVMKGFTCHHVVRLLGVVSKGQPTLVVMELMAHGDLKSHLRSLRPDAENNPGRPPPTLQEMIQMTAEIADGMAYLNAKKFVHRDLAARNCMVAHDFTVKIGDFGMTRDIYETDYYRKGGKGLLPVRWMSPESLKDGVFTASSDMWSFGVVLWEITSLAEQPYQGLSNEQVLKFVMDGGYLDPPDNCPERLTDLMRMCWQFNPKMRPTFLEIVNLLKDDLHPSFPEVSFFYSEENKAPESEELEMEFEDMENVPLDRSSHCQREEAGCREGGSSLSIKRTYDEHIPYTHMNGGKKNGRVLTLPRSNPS
T1 sequence (P15127 27-759 partner limits assumed): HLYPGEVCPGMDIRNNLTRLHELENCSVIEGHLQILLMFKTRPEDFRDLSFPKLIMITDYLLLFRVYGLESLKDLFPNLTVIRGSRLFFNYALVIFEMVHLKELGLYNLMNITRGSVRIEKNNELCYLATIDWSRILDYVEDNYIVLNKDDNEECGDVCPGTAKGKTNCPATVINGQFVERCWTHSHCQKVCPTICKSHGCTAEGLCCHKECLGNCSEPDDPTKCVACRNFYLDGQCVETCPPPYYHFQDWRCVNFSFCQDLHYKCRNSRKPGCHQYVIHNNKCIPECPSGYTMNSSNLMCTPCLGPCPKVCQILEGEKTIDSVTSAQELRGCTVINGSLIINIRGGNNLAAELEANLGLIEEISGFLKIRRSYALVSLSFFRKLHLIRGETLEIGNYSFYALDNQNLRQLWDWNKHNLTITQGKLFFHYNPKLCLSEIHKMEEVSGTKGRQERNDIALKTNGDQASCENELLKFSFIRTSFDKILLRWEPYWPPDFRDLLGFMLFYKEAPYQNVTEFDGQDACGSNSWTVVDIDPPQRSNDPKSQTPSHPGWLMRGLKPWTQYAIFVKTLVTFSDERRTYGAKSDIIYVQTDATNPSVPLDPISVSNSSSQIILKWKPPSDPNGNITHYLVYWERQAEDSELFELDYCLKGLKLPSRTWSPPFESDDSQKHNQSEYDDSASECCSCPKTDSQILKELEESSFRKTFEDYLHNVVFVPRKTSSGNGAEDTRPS

Compound	reduction in glucose production compared with 100 nM insulin / CDE ([1]; 3.8 μM)	reduction in glucose production compared with 100 nM insulin / CDE ([1]; 3.8 μM, listed as compound #43)	reduction in glucose production compared with 100 nM insulin / CDE ([1]; 7.6 μM or higher (7.6, 15.2 and 30.4 μM))	relative potency among tested compounds in inhibiting glucose production ([1]; FIG. 1 left-hand panel)	IC50 ([1]; Homo sapiens, HepG2, 48 hr, read-out: IC50 (inhibition of glucose production))	effect on glucose production in HepG2 cells ([1]; tested doses, serum-free glucose production media, 48 hr (FIG. 1))	effect on G6pc expression ([2]; 150 and 300 ppb, 24 hr pretreatment then 6 hr retreatment (FIG. 10C))	decrease of G6pc expression vs Control ([2]; 300 ppb selenium (3.8 μM of each compound), serum-free, 24 hr (FIG. 10A))	decrease in G6pc mRNA levels vs either agent alone ([2]; pretreatment then co-treatment with 10 nM insulin, 6 hr (FIG. 10C))	phosphorylation of Insrβ at Y1146/1150/1151 ([3]; doses of 1.9 and 3.8, cell-free (FIG. 26))	effect on glucose uptake ([4]; 150, 300 and 600 ppb, 1.5 hr (FIG. 17))	extent of increased glucose uptake ([4]; 600 ppb, 1.5 hr)	time to stimulate glucose uptake ([4]; serum-free)	effect on G6PC expression [5]	reduction in glucose production ([1]; 10 nM insulin)	reduction in glucose production ([1]; 100 nM insulin)	decrease of G6pc mRNA levels vs Control ([2]; 10 nM insulin, serum-free, 6 hr (FIG. 10C))	phosphorylation of Insrβ at Y1146/1150/1151 ([3]; insulin 0.5 μM, cell-free (FIG. 26))	effect on glucose uptake ([4]; 10 nM insulin, 1.5 hr)	effect on glucose uptake ([4]; 100 nM insulin, 1.5 hr)
C[Se]C[C@H]1O[C@@H](n2cnc3c(N)ncnc32)C(OC(C)=O)C1OC(C)=O (stereo partly drawn) [Compound #43, Adenosine, 5′-Se-methyl-5′-selino-, 2′,3′-diacetate]	as potent as the CDE combination product	comparable to that achieved when insulin (100 nM) was used	much more potent than 100 nM insulin; also recorded: more potent than CDE	the most potent	15.5 µM	decrease in glucose levels in the culture media; also recorded: inhibited glucose production	significant decrease of G6pc expression with the decrease levels comparable to 10 nM insulin	~60%	more pronounced	significantly enhance the phosphorylation of Insrβ at Y1146/1150/1151	significant increase of glucose uptake	comparable to 100 nM insulin	less than 1.5 hr	significantly attenuated						
insulin: insulin purchased from Sigma, positive control														significant decrease of G6PC expression	20%	30%	about 65%	able to induce the phosphorylation of Insrβ at Y1146/1150/1151	did not enhance the glucose uptake	significant increase of glucose uptake
